# “And” between values parts separate entries of the source, which are not always exact repeats. Equal values may be shown once. The source made the active and inactive calls.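 Rule for the calls: active = IC50 under 30000 nM, about half a log past the top tested dose; inactive = the rest.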
# Biological target: Baculoviral IAP repeat-containing protein 2 (Homo sapiens) (UniProt Q13490)
# Assay: SMAC mimetics displacing peptide from cIAP1 – biochemical, SAR follow-up (AID 1508599)
# Conditions: cIAP1 BIR3 / rhodamine-SMAC peptide fluorescence polarization
# Chain of Baculoviral IAP repeat-containing protein 2 (Homo sapiens) (Q13490 whole entry, looked up): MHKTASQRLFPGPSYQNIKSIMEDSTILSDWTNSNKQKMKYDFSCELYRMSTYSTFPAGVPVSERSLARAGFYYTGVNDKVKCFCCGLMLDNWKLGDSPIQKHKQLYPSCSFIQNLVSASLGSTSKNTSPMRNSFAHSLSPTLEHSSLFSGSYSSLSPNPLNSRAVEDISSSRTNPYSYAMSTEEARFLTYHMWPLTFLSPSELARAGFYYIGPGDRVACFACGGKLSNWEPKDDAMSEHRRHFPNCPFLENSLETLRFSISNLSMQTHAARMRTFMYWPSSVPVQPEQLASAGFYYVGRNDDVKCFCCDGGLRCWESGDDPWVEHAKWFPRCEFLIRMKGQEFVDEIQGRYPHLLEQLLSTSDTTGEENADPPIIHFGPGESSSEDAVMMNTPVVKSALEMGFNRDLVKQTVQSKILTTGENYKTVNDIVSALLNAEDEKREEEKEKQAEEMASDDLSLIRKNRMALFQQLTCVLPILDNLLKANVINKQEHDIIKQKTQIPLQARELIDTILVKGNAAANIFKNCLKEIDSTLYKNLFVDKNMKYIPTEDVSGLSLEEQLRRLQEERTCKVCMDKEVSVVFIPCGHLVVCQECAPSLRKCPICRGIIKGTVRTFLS
row,SMILES,IC50
1,CN[C@@H](C)C(=O)N[C@H]1CCCN[C@H]2CCC(C(=O)N[C@H]3CCCc4ccccc43)N2C1=O (some centres not stated),789 nM
2,CN[C@@H](C)C(=O)N[C@H]1Cc2cccc(O)c2[C@H]2CC(C)(C)C(C(=O)N[C@@H]3CCCc4ccccc43)N2C1=O (some centres not stated),14900 nM
3,CN[C@@H](C)C(=O)N[C@H]1CCO[C@H]2CC[C@@H](C(=O)N[C@@H]3CCCc4ccccc43)N2C1=O,740 nM
4,CN[C@@H](C)C(=O)N[C@H]1CCO[C@H]2CC(C)(C)C(C(=O)Nc3ccccc3SSc3ccccc3NC(=O)C3N4C(=O)[C@@H](NC(=O)[C@H](C)NC)CCO[C@H]4CC3(C)C)N2C1=O (some centres not stated),505 nM
5,CN[C@@H](C)C(=O)N[C@H]1CCS(=O)(=O)[C@H]2CC[C@H](C(=O)N[C@@H]3CCCc4ccccc43)N2C1=O,> 100000 nM (inactive)
6,CN[C@@H](C)C(=O)N[C@H]1CCN[C@H]2CCC(C(=O)N[C@@H]3CCCc4ccccc43)N2C1=O (some centres not stated),113 nM
7,CN[C@@H](C)C(=O)N[C@H]1CCO[C@H]2CC[C@@H](C(=O)Nc3cccc4ccccc34)N2C1=O,47 nM
8,CN[C@@H](C)C(=O)N[C@H]1CCO[C@H]2CC3(CCCC3)C(C(=O)N[C@@H]3CCCc4ccccc43)N2C1=O (some centres not stated),1350 nM
9,CN[C@@H](C)C(=O)N[C@@H]1C(=O)N2C(C(=O)Nc3cccc4ccccc34)CC[C@@H]2O[C@@H]1C (some centres not stated),78 nM
10,CN[C@@H](C)C(=O)N[C@H]1CCS(=O)(=O)[C@H]2CC[C@@H](C(=O)N[C@@H]3CCCc4ccccc43)N2C1=O,11600 nM
11,CN[C@@H](C)C(=O)N[C@@H]1C(=O)N2C(C(=O)NC(c3ccccc3)c3ccccc3)CC[C@@H]2O[C@@H]1C (some centres not stated),235 nM
12,CN[C@@H](C)C(=O)N[C@H]1CCO[C@H]2CC[C@H](C(=O)N[C@@H]3CCOc4ccccc43)N2C1=O,> 100000 nM (inactive)
13,CN[C@@H](C)C(=O)N[C@H]1CCS(=O)(=O)[C@H]2CC(C)(C)[C@@H](C(=O)N[C@@H]3CCCc4ccccc43)N2C1=O,> 100000 nM (inactive)
14,CN[C@@H](C)C(=O)N[C@H]1CCS[C@H]2CCC(C(=O)N[C@H]3CCCc4ccccc43)N2C1=O (some centres not stated),157 nM
15,CN[C@@H](C)C(=O)N[C@H]1CCO[C@H]2CC[C@H](C(=O)n3ccc4ccccc43)N2C1=O,147 nM
16,CC(=O)N(C)[C@@H](C)C(=O)N[C@H]1CCCN(C(C)=O)[C@H]2CCC(C(=O)Nc3cccc4ccccc34)N2C1=O (some centres not stated),6850 nM
17,CN[C@@H](C)C(=O)N[C@H]1Cc2c([nH]c3ccccc23)[C@H]2CCC(C(=O)N[C@@H]3CCCc4ccccc43)N2C1=O (some centres not stated),93 nM

# Results, then the compound that gave them:
row,IC50,SMILES
1,1000 nM,CN[C@@H](C)C(=O)N[C@H]1CCS[C@H]2CC[C@H](C(=O)N[C@@H]3CCCc4ccccc43)N2C1=O
2,140 nM,CN[C@@H](C)C(=O)N[C@H]1CCS[C@H]2CC[C@@H](C(=O)N[C@@H]3CCCc4ccccc43)N2C1=O
3,8440 nM,CN[C@@H](C)C(=O)N[C@H]1CCO[C@H]2c3ccccc3C(C(=O)N[C@@H]3CCCc4ccccc43)N2C1=O (some centres not stated)
4,1300 nM,CN[C@@H](C)C(=O)N[C@H]1CCO[C@H]2CC[C@@H](C(=O)N[C@@H]3CCOc4ccccc43)N2C1=O
5,294 nM,CN[C@@H](C)C(=O)N[C@H]1CCO[C@H]2CCC(C(=O)NC(c3ccccc3)c3ccccc3)N2C1=O (some centres not stated)
6,2000 nM and 1790 nM,CN[C@@H](C)C(=O)N[C@H]1CC(=O)N[C@H]2CC(C)(C)C(C(=O)N[C@@H]3CCCc4ccccc43)N2C1=O (some centres not stated)
7,272 nM and 37 nM,CN[C@@H](C)C(=O)N[C@H]1CCCN(C(C)=O)C2CCC(C(=O)N[C@H]3CCCc4ccccc43)N2C1=O (some centres not stated)
8,363 nM and 2520 nM and 605 nM,CN[C@@H](C)C(=O)N[C@H]1CCSC2CCCC(C(=O)N[C@@H]3CCCc4ccccc43)N2C1=O (some centres not stated)
9,21100 nM,CN[C@@H](C)C(=O)N[C@H]1CCCN[C@H]2CCC(C(=O)Nc3cccc4ccccc34)N2C1=O (some centres not stated)
10,210 nM,CN[C@@H](C)C(=O)N[C@H]1CCO[C@H]2CC(C)(C)[C@@H](C(=O)N[C@@H]3CCCc4ccccc43)N2C1=O
11,263 nM,CN[C@@H](C)C(=O)N[C@H]1CCO[C@H]2CCC(C(=O)Nc3cccc4ccccc34)N2C1=O (some centres not stated)
12,> 100000 nM (inactive),CN[C@@H](C)C(=O)N[C@H]1Cc2cc(O)c(O)cc2[C@H]2CC(C)(C)C(C(=O)N[C@@H]3CCCc4ccccc43)N2C1=O (some centres not stated)
13,inactive,CN[C@@H](C)C(=O)N[C@H]1Cc2cc(O)ccc2[C@H]2CC(C)(C)C(C(=O)N[C@@H]3CCCc4ccccc43)N2C1=O (some centres not stated)
14,1210 nM,CN[C@@H](C)C(=O)N[C@H]1CCO[C@H]2CC[C@@H](C(=O)n3ccc4ccccc43)N2C1=O
15,72 nM,CN[C@@H](C)C(=O)N[C@H]1CCO[C@H]2CCC(C(=O)N[C@H]3CCCc4ccccc43)N2C1=O (some centres not stated)

# — PubChem BioAssay AID1508599 (Sanford-Burnham Center for Chemical Genomics, 2020)
